Source: patent publication US9109041B2, “Analog compounds of analgesic peptides derived from the venom of crotalus durissus terrificus snakes, their uses, compositions, methods of preparation and purification” (priority 2004, dated 2015)

Test system: spontaneous pain induced by constriction of the sciatic nerve
Assay: spontaneous pain induced by constriction of the sciatic nerve (licking and lifting time)
Assay type: in vivo, rat
Conditions: 5 μg/kg p.o.
Method: For the induction of neuropathic pain, surgery was performed in the sciatic nerve, in accordance with the method described by Bennett, G. J and Xie, Y. K. (Pain, 33:87-107, 1988). The animals were anesthetized with halothane. The sciatic nerve was exposed in the middle region of the thigh, moving away the femoral biceps muscle. Close to the trifurcation of the sciatic nerve, 7 mm of distance from the trifurcation, 4 loose ligations were performed (chromed catgut 4-0) around it, distant from each other in approximately 1 mm. The bindings were performed along the nerve, up to 4-5 mm from the initial point. The incision was sutured in layers, using silk suture thread number 4-0.
For the observation of the signs that characterize spontaneous pain, the animals were placed one by one, in a transparent plastic box. After the acclimatizing period of 30 minutes, the rats were observed during 10 minutes, determining the duration of the licking (in seconds) and lifting time. The licking and lifting activities, performed as part of the normal grooming behavior of animals, were not considered.

[1] = day 14 after surgery, before peptide, 10 min observation

Substance: Xaa-Phe-Ser-Pro-Glu-Asn-Cys-Gln-Gly-Glu-Ser-Gln-Pro-Cys [SEQ ID NO: 2]
- lifting time, FM 1 h (1 h after peptide): 2 ± 0.21 s
- paw licking time, FM 1 h (1 h after peptide): 2 ± 0.21 s
- lifting time, FM 3 h (3 h after peptide): 2 ± 0.26 s
- paw licking time, FM 3 h (3 h after peptide): 2 ± 0.21 s
- lifting time, FM 24 h (24 h after peptide): 2 ± 0.22 s
- paw licking time, FM 24 h (24 h after peptide): 2 ± 0.39 s
- lifting time, FM 48 h (48 h after peptide): 1.0 ± 0.16 s
- paw licking time, FM 48 h (48 h after peptide): 1.5 ± 0.22 s
- lifting time, FM 72 h (72 h after peptide): 2 ± 0.26 s
- paw licking time, FM 72 h (72 h after peptide): 1.5 ± 0.22 s
- lifting time, FM 96 h (96 h after peptide): 1.5 ± 0.16 s
- paw licking time, FM 96 h (96 h after peptide): 21 ± 0.26 s
- lifting time, FM 120 (120 h after peptide): 95 ± 0.50 s
- paw licking time, FM 120 (120 h after peptide): 21 ± 0.38 s
- lifting time, IM [1]: 97 ± 0.43 s
- paw licking time, IM [1]: 22 ± 0.64 s
